Each structure is given as a SMILES string. ≈ marks a conversion by molar mass, not a printed value. Read-outs that look alike come from different tables or passages of the source.

In one data set the target is hERG (Homo sapiens, UniProt Q12809). As to conditions: cited from earlier work.
Data set [1] concerns the target T1, C. parvum calcium dependent protein kinase 1 (CpCDPK1) (Cryptosporidium parvum, UniProt A3FQ16).
T1 sequence (A3FQ16 1-538): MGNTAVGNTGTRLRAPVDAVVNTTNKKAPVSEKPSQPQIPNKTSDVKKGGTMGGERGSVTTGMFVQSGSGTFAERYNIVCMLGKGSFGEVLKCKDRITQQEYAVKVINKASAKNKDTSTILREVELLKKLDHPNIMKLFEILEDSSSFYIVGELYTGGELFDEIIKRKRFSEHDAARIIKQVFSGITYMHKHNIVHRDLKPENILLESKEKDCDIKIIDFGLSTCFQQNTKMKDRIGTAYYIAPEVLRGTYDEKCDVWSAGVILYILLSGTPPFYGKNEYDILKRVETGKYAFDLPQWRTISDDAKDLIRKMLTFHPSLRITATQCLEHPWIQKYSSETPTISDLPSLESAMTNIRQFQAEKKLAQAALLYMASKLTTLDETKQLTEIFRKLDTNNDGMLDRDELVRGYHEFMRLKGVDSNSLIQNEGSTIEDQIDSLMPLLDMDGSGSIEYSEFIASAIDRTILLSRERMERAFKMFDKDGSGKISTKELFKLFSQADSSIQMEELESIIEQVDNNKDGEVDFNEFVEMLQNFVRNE
The data set is described as follows: In vitro inhibition of CpCDPK1. It is filed as biochemical. The source says:
(§1) Methods for synthesis of BKIs ([17], [23]), efficacy against Nluc expressing C. parvum in infected adult IFN-γ KO mice ([6], [9]), in vivo mouse GI tract tissue exposure by LC/MS-MS analysis ([18], [28]), PK analysis of mouse plasma and brain tissue BKI concentrations by LC/MS-MS analysis ([29]), in vivo rat and dog cardiotoxicity screen ([30]), efficacy against IOWA-II strain C. parvum in infected neonatal calves ([13]), efficacy against C. hominis in infected piglets ([12]), in vitro inhibition of C. parvum CDPK1 (CpCDPK1) and human tyrosine kinase SRC (HsSRC) activity ([31]), in vitro inhibition of hERG ([32]), Nluc expressing C. parvum in vitro growth inhibition in infected HCT-8 cells ([6]), in vitro cytotoxicity in CRL-8155 and HepG2 cells ([29]), and mouse locomotor activity box ([33], [34]) have all been previously described. Analytes were measured by LC/MS-MS on an Acquity ultra performance liquid chromatography (UPLC) system in tandem with a Xevo TQ-S mass spectrometer (Waters, Milford, MA, USA).

Data set [2] deals with Nluc expressing C. parvum. Nature of the data set: Nluc expressing C. parvum in vitro growth inhibition in infected HCT-8 cells. It counts as cell-based. To be noted: Cryptosporidium parvum.
From the text: as §1

Data set [3] has as its target human tyrosine kinase SRC (HsSRC) (Homo sapiens, UniProt P12931). The data set is described as follows: In vitro inhibition of HsSRC. It is filed as biochemical. To be noted: read-out: HsSR IC50.
From the text: as §1

The nature of data set [4]: In vitro cytotoxicity in HepG2 cells. To be noted: human. It counts as cell-based.
From the text: as §1

The nature of data set [5]: In vitro cytotoxicity in CRL-8155 cells. To be noted: human. It counts as cell-based.
From the text: as §1

Another data set in a line: Aqueous solubility. It counts as physicochemical. From the text: TABLE 1 In vitro properties of bumped kinase inhibitors^a | column: Solubility at pH 2 (μM); Solubility at pH 6.5 (μM)
In the next data set the test system is Cryptosporidium. Also on record: method as in PMID 12423984, PMID 11398117, PMID 26568906. To be noted: malnourished children (subtracting placebo efficacy); cited from earlier work.
The nature of data set [6]: Cardiovascular testing in anesthetized dogs. It counts as in vivo, dog. To be noted: dogs (data not shown).
From the text: as §1

For data set [7] the following is noted: rat, in vivo; cited from earlier work.

hERG, sequence (Q12809 whole entry): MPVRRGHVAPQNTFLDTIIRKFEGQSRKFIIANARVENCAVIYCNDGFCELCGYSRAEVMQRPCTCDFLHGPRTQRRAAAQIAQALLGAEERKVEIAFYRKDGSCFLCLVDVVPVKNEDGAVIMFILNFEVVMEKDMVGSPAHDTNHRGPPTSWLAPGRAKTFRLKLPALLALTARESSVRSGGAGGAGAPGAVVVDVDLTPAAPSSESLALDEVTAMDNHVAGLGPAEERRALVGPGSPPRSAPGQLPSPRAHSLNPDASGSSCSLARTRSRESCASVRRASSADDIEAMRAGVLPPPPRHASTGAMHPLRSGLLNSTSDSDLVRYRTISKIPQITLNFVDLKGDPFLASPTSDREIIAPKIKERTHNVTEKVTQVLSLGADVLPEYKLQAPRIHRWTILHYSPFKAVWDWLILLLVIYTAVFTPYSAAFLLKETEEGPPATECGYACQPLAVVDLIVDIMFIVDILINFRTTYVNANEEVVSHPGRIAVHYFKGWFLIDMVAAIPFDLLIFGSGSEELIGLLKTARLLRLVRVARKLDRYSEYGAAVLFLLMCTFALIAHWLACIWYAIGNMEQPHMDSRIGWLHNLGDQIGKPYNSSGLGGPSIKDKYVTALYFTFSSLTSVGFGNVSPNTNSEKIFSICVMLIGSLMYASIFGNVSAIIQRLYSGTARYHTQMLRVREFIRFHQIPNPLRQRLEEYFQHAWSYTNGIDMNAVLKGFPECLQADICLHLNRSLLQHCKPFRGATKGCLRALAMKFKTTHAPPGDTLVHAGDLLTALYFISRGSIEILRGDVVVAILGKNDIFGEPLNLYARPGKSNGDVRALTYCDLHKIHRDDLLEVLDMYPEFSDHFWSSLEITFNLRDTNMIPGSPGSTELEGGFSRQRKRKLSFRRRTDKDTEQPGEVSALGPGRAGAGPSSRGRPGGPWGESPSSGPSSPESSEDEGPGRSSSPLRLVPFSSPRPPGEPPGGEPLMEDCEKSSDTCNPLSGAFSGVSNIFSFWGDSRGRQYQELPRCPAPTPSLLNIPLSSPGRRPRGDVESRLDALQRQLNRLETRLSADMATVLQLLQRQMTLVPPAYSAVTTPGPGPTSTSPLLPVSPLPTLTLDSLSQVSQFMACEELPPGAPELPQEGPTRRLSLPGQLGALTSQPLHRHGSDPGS
human tyrosine kinase SRC (HsSRC), sequence (P12931 whole entry): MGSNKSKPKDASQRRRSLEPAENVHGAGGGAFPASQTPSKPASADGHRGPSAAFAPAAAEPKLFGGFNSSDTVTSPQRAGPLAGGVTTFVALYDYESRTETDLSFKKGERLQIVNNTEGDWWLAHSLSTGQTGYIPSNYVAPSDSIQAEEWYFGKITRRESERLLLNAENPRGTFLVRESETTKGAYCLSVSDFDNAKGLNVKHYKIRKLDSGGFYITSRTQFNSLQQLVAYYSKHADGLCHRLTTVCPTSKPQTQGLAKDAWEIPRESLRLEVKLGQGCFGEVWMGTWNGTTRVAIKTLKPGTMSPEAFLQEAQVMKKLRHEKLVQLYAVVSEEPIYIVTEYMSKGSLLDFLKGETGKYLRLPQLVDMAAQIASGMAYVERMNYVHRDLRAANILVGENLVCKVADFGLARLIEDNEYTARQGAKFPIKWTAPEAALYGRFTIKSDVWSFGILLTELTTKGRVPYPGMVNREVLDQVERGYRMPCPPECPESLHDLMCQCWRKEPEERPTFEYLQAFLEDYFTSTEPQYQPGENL

As to `CCOc1ccc2cc(-c3nn(CC4CCN(C)CC4)c4ncnc(N)c34)ccc2c1` [BKI-1294], the “inhibition of hERG in vitro” value on hERG is recorded as “submicromolar range”.
For orientation: IC50 means the concentration needed to halve the response being measured. Usually EC50 stands for the concentration that produces a half-maximal response. A low value points to an effect from little substance. One may read the CC50 as the concentration that lowers cell viability or growth by half. A higher CC50 goes with lower toxicity to the cells. A word on the solubility: it is how much of the substance goes into solution per volume. Consider `CC(C)(CCO)n1nc(-c2ccc3cc(O)ccc3c2)c(C(N)=O)c1N` [1770-M5], for which the IC50 in [1] is 0.018 µM; in [3] it was 5.4 µM. The same compound gave an EC50 in data set [2] of 2.1 µM. Moreover, the cytotoxic concentration (CC50) in [4] and in data set [5] was above 80 µM throughout. Moreover, the solubility in the data set “Aqueous solubility” (aqueous medium at pH 2, pH 2, simulated gastric fluid, read-out: Solubility at pH 2) was 89 µM (≈ 31.5 µg/mL); in the data set “Aqueous solubility” (aqueous medium at pH 6.5, pH 6.5, aqueous buffer, read-out: Solubility at pH 6.5), above 100 µM.
As to `CC(=O)Oc1ccccc1C(=O)Nc1ncc([N+](=O)[O-])s1` [Nitazoxanide], the efficacy entry in the data set with Cryptosporidium was “about 30%”.
In the case of `CCOc1ccc2cc(-c3nn(CC4CCN(C)CC4)c4ncnc(N)c34)ccc2n1` [BKI-1369], the cardiotoxicity in vivo entry in [6] and in [7] was “Cardiotoxicity was additionally seen” in each case. Moreover, the “cardiotoxicity in the in vitro hERG assay” value at hERG is “Cardiotoxicity was additionally seen”.

The values above are taken from paper PMC10112232, “Comparison of Toxicities among Different Bumped Kinase Inhibitor Analogs for Treatment of Cryptosporidiosis” (Antimicrobial Agents and Chemotherapy, 2023).
